IC50 data for 59 compounds are collected here from patent US8129398B2 (priority 2008, dated 2012).

Molecules are shown by their SMILES.

The assay concerns the target T1, HIV-integrase (Human immunodeficiency virus type 1 group M subtype B, UniProt P12497).
T1 construct: Recombinant integrase (0.26 ng) was incubated with the beads
In words: HIV-Integrase Inhibition Activity (SPA bead integration assay with P33 labeled target DNA). It is filed as biochemical. As to conditions: recombinant integrase, class symbols; read-out: in vitro activity. The method, boiled down:
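Strand integration read as bead-proximity CPM after P33 target DNA (0.1 fmol) and inhibitor were added to washed integrase–substrate DNA complexes on SPA beads. Enzyme bound 90 min at 37° C; EDTA (10 mM final) terminated reaction; IC50 graded A/B/C.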
Consider `CN(C)C(=O)C(=O)NC12CCC(CC1)Cn1c2nc(C(=O)NCCc2ccc(O)cc2)c(O)c1=O` [Example 347], for which the IC50 was > 100 nM.

Take `CN(C)C(=O)C(=O)NC12CCC(CC1)Cn1c2nc(C(=O)NCCC(C)(C)C)c(O)c1=O` [Example 348]: the IC50 was > 100 nM.

Turning to `CN(C)C(=O)C(=O)NC12CCC(CC1)Cn1c2nc(C(=O)NCCCc2ccccc2)c(O)c1=O` [Example 349], the IC50 is < 10 nM.

For the compound `CN(C)C(=O)C(=O)NC12CCC(CC1)Cn1c2nc(C(=O)NCCCn2ccnc2)c(O)c1=O` [Example 350], the IC50 was > 100 nM.

Consider `CN(C)C(=O)C(=O)NC12CCC(CC1)Cn1c2nc(C(=O)NCCc2ccc(S(N)(=O)=O)cc2)c(O)c1=O` [Example 351], for which the IC50 was > 100 nM.

As to `CN(C)C(=O)C(=O)NC12CCC(CC1)Cn1c2nc(C(=O)NCC2CC2)c(O)c1=O` [Example 352], the IC50 was > 100 nM.

Take `CN(C)C(=O)C(=O)NC12CCC(CC1)Cn1c2nc(C(=O)NCCc2cccc(Cl)c2)c(O)c1=O` [Example 353]: the IC50 is < 10 nM.

Turning to `CN(C)C(=O)C(=O)NC12CCC(CC1)Cn1c2nc(C(=O)NCCc2cccs2)c(O)c1=O` [Example 354], the IC50 lay within 10 to 100 nM.

Take `CN(C)C(=O)C(=O)NC12CCC(CC1)Cn1c2nc(C(=O)NCCOc2ccccc2)c(O)c1=O` [Example 355]: the IC50 is < 10 nM.

Consider `CN(C)C(=O)C(=O)NC12CCC(CC1)Cn1c2nc(C(=O)NC2CCN(Cc3ccccc3)C2)c(O)c1=O` (centres unmarked) [Example 356], for which the IC50 is > 100 nM.

Turning to `CN(C)C(=O)C(=O)NC12CCC(CC1)Cn1c2nc(C(=O)NCCc2ccc(F)cc2)c(O)c1=O` [Example 358], the IC50 is 10 to 100 nM.

Consider `CN(C)C(=O)C(=O)NC12CCC(CC1)Cn1c2nc(C(=O)NCc2csc(-c3ccccc3)n2)c(O)c1=O` [Example 359], for which the IC50 was < 10 nM.

Regarding `CN(C)C(=O)C(=O)NC12CCC(CC1)Cn1c2nc(C(=O)NCc2nc3ccccc3s2)c(O)c1=O` [Example 360], the IC50 is < 10 nM.

Turning to `CN(C)C(=O)C(=O)NC12CCC(CC1)Cn1c2nc(C(=O)NCc2cccs2)c(O)c1=O` [Example 361], the IC50 is < 10 nM.

Regarding `CN(C)C(=O)C(=O)NC12CCC(CC1)Cn1c2nc(C(=O)NCc2ccc3c(c2)OCO3)c(O)c1=O` [Example 362], the IC50 was < 10 nM.

For `CN(C)C(=O)C(=O)NC12CCC(CC1)Cn1c2nc(C(=O)NCc2ccccn2)c(O)c1=O` [Example 363], the IC50 lay in the range of 10 to 100 nM.

For the compound `CN(C)C(=O)C(=O)NC12CCC(CC1)Cn1c2nc(C(=O)NCc2cccnc2)c(O)c1=O` [Example 364], the IC50 is 10 to 100 nM.

Take `CN(C)C(=O)C(=O)NC12CCC(CC1)Cn1c2nc(C(=O)NCc2ccncc2)c(O)c1=O` [Example 365]: the IC50 was > 100 nM.

Consider `CC(NC(=O)c1nc2n(c(=O)c1O)CC1CCC2(NC(=O)C(=O)N(C)C)CC1)c1ccccc1` (centres unmarked) [Example 366], for which the IC50 was < 10 nM.

`CN(C)C(=O)C(=O)NC12CCC(CC1)Cn1c2nc(C(=O)NCc2ccccc2F)c(O)c1=O` [Example 367]: the IC50 is < 10 nM.

Turning to `CN(C)C(=O)C(=O)NC12CCC(CC1)Cn1c2nc(C(=O)NCc2ccc(Cl)cc2Cl)c(O)c1=O` [Example 368], the IC50 is < 10 nM.

In the case of `COc1ccccc1CNC(=O)c1nc2n(c(=O)c1O)CC1CCC2(NC(=O)C(=O)N(C)C)CC1` [Example 369], the IC50 was < 10 nM.

As to `Cc1ccccc1CNC(=O)c1nc2n(c(=O)c1O)CC1CCC2(NC(=O)C(=O)N(C)C)CC1` [Example 370], the IC50 is < 10 nM.

With `CN(C)C(=O)C(=O)NC12CCC(CC1)Cn1c2nc(C(=O)NCc2cccc(F)c2)c(O)c1=O` [Example 371], the IC50 is < 10 nM.

`CN(C)C(=O)C(=O)NC12CCC(CC1)Cn1c2nc(C(=O)NCc2ccc(Cl)c(Cl)c2)c(O)c1=O` [Example 372]: the IC50 is < 10 nM.

With `COc1cccc(CNC(=O)c2nc3n(c(=O)c2O)CC2CCC3(NC(=O)C(=O)N(C)C)CC2)c1` [Example 373], the IC50 is < 10 nM.

For the compound `CN(C)C(=O)C(=O)NC12CCC(CC1)Cn1c2nc(C(=O)NCc2ccc(Cl)cc2)c(O)c1=O` [Example 374], the IC50 was < 10 nM.

With `COc1ccc(CNC(=O)c2nc3n(c(=O)c2O)CC2CCC3(NC(=O)C(=O)N(C)C)CC2)cc1` [Example 375], the IC50 is < 10 nM.

Take `CN(C)C(=O)C(=O)NC12CCC(CC1)Cn1c2nc(C(=O)NCc2ccccc2C(F)(F)F)c(O)c1=O` [Example 377]: the IC50 is 10 to 100 nM.

In the case of `CN(C)C(=O)C(=O)NC12CCC(CC1)Cn1c2nc(C(=O)NCc2ccc(N(C)C)cc2)c(O)c1=O` [Example 378], the IC50 is 10 to 100 nM.

On to `CN(C)C(=O)C(=O)NC12CCC(CC1)Cn1c2nc(C(=O)NCc2ccc(S(N)(=O)=O)cc2)c(O)c1=O` [Example 379], for which the IC50 is < 10 nM.

On to `CN(C)C(=O)C(=O)NC12CCC(CC1)Cn1c2nc(C(=O)NCc2cccc(Cl)c2)c(O)c1=O` [Example 380], for which the IC50 is < 10 nM.

For `COc1cccc(CNC(=O)c2nc3n(c(=O)c2O)CC2CCC3(NC(=O)C(=O)N(C)C)CC2)c1OC` [Example 381], the IC50 was < 10 nM.

With `CN(C)C(=O)C(=O)NC12CCC(CC1)Cn1c2nc(C(=O)NCc2cc(Cl)cc(Cl)c2)c(O)c1=O` [Example 383], the IC50 was < 10 nM.

`CN(C)C(=O)C(=O)NC12CCC(CC1)Cn1c2nc(C(=O)NCc2ccc(N)cc2)c(O)c1=O` [Example 385]: the IC50 lay in the range of 10 to 100 nM.

With `CN(C)C(=O)C(=O)NC12CCC(CC1)Cn1c2nc(C(=O)NCc2ccccc2OC(F)(F)F)c(O)c1=O` [Example 386], the IC50 was < 10 nM.

Take `CN(C)C(=O)C(=O)NC12CCC(CC1)Cn1c2nc(C(=O)NCc2ccccc2-c2ccccc2)c(O)c1=O` [Example 387]: the IC50 is < 10 nM.

Take `CN(C)C(=O)C(=O)NC12CCC(CC1)Cn1c2nc(C(=O)NCc2cccc(-c3ccccc3)c2)c(O)c1=O` [Example 388]: the IC50 was < 10 nM.

`Cc1cnc(CNC(=O)c2nc3n(c(=O)c2O)CC2CCC3(NC(=O)C(=O)N(C)C)CC2)cn1` [Example 389]: the IC50 was 10 to 100 nM.

For the compound `CN(C)C(=O)C(=O)NC12CCC(CC1)Cn1c2nc(C(=O)NCc2ccc(O)cc2)c(O)c1=O` [Example 390], the IC50 was 10 to 100 nM.

As to `Cc1cccc(S(=O)(=O)NC23CCC(CC2)Cn2c3nc(C(=O)NCc3ccc(F)cc3)c(O)c2=O)c1` [Example 391], the IC50 is < 10 nM.

Consider `Cc1oncc1S(=O)(=O)NC12CCC(CC1)Cn1c2nc(C(=O)NCc2ccc(F)cc2)c(O)c1=O` [Example 393], for which the IC50 was < 10 nM.

Regarding `O=C(NCc1ccc(F)cc1)c1nc2n(c(=O)c1O)CC1CCC2(NS(=O)(=O)c2ccccc2)CC1` [Example 395], the IC50 was < 10 nM.

As for `CCOC(=O)N1CCCC1C(=O)NC12CCC(CC1)Cn1c2nc(C(=O)NCc2ccc(F)cc2)c(O)c1=O` (centres unmarked) [Example 397], the IC50 was < 10 nM.

For the compound `CCCOC(=O)N1CCCC1C(=O)NC12CCC(CC1)Cn1c2nc(C(=O)NCc2ccc(F)cc2)c(O)c1=O` (centres unmarked) [Example 398], the IC50 was < 10 nM.

Take `CC(C)C(=O)N1CCCC1C(=O)NC12CCC(CC1)Cn1c2nc(C(=O)NCc2ccc(F)cc2)c(O)c1=O` (centres unmarked) [Example 399]: the IC50 is < 10 nM.

Consider `O=C(NCc1ccc(F)cc1)c1nc2n(c(=O)c1O)CC1CCC2(NC(=O)C2CCCN2C(=O)C2CCC2)CC1` (centres unmarked) [Example 400], for which the IC50 is < 10 nM.

Consider `CNC(=O)N1CCCC1C(=O)NC12CCC(CC1)Cn1c2nc(C(=O)NCc2ccc(F)cc2)c(O)c1=O` (centres unmarked) [Example 401], for which the IC50 was < 10 nM.

In the case of `CC(C)S(=O)(=O)N1CCCC1C(=O)NC12CCC(CC1)Cn1c2nc(C(=O)NCc2ccc(F)cc2)c(O)c1=O` (centres unmarked) [Example 402], the IC50 was < 10 nM.

On to `CCS(=O)(=O)N1CCCC1C(=O)NC12CCC(CC1)Cn1c2nc(C(=O)NCc2ccc(F)cc2)c(O)c1=O` (centres unmarked) [Example 403], for which the IC50 is < 10 nM.

For the compound `CCCS(=O)(=O)N1CCCC1C(=O)NC12CCC(CC1)Cn1c2nc(C(=O)NCc2ccc(F)cc2)c(O)c1=O` (centres unmarked) [Example 404], the IC50 is < 10 nM.

For `CC(C)OC(=O)N1CCCC1C(=O)NC12CCC(CC1)Cn1c2nc(C(=O)NCc2ccc(F)cc2)c(O)c1=O` (centres unmarked) [Example 405], the IC50 was < 10 nM.

With `COC(=O)N1CCCC1C(=O)NC12CCC(CC1)Cn1c2nc(C(=O)NCc2ccc(F)cc2)c(O)c1=O` (centres unmarked) [Example 406], the IC50 is < 10 nM.

Regarding `O=C(NCc1ccc(F)cc1)c1nc2n(c(=O)c1O)CC1CCC2(NC(=O)C2CCCN2C(=O)C2CC2)CC1` (centres unmarked) [Example 407], the IC50 was < 10 nM.

Turning to `O=C(NCc1ccc(F)cc1)c1nc2n(c(=O)c1O)CC1CCC2(NC(=O)C2CCCN2S(=O)(=O)C2CCCC2)CC1` (centres unmarked) [Example 408], the IC50 was < 10 nM.

On to `O=C(NCc1ccc(F)cc1)c1nc2n(c(=O)c1O)CC1CCC2(NC(=O)C2CCCN2S(=O)(=O)c2ncn[nH]2)CC1` (centres unmarked) [Example 409], for which the IC50 is < 10 nM.

For the compound `O=C(NCc1ccc(F)cc1)c1nc2n(c(=O)c1O)CC1CCC2(NC(=O)C2CCCN2S(=O)(=O)c2ccco2)CC1` (centres unmarked) [Example 410], the IC50 is < 10 nM.

`Cc1cc(CNC(=O)c2nc3n(c(=O)c2O)CC[C@@H]2CC[C@@]3(NC(=O)C(=O)N(C)C)C2)ccc1F` [Example 415, Ethanediamide, N′-[(8S,11R)-2-[[[(4-fluoro-3-methylphenyl)methyl]amino]carbonyl-7,8,9,10-tetrahydro-3-hydroxy-4-oxo-8,11-methano-4H-pyrimido[1,2-a]azocin-1](6H)-yl]-N,N-dimethyl-]: the IC50 was < 10 nM.

As for `Cc1cc(CNC(=O)c2nc3n(c(=O)c2O)CC[C@H]2CC[C@]3(NC(=O)C(=O)N(C)C)C2)ccc1F` [Example 416, Ethanediamide, N′-[(8R,11S)-2-[[[(4-fluoro-3-methylphenyl)methyl]amino]carbonyl]-7,8,9,10-tetrahydro-3-hydroxy-4-oxo-8,11-methano-4H-pyrimido[1,2-a]azocin-11(6H)-yl]-N,N-dimethyl-], the IC50 was < 10 nM.
